Source: ChEMBL document CHEMBL5303573, “Mapping human microbiome drug metabolism by gut bacteria and their genes” (Nature, 2019)

What was measured:
[1] = The drug is tested on Bifidobacterium breve strain: DSM20213 for biotransformation. The drug concentrations were measured before and after a 12-h incubation by liquid-chromatography-coupled mass spectrometry (LC–MS); details: 2 µM
[2] = The drug is tested on Collinsella aerofaciens strain: ATCC25986 for biotransformation. The drug concentrations were measured before and after a 12-h incubation by liquid-chromatography-coupled mass spectrometry (LC–MS); details: 2 µM
[3] = The drug is tested on Bacteroides caccae strain: ATCC43185 for biotransformation. The drug concentrations were measured before and after a 12-h incubation by liquid-chromatography-coupled mass spectrometry (LC–MS); details: 2 µM
[4] = The drug is tested on Bacteroides coprophilus strain: DSM18228 for biotransformation. The drug concentrations were measured before and after a 12-h incubation by liquid-chromatography-coupled mass spectrometry (LC–MS); details: 2 µM
[5] = The drug is tested on Bacteroides dorei strain: DSM17855 for biotransformation. The drug concentrations were measured before and after a 12-h incubation by liquid-chromatography-coupled mass spectrometry (LC–MS); details: phocaeicola dorei, 2 µM
[6] = The drug is tested on Bacteroides finegoldii strain: DSM17565 for biotransformation. The drug concentrations were measured before and after a 12-h incubation by liquid-chromatography-coupled mass spectrometry (LC–MS); details: 2 µM
[7] = The drug is tested on Bacteroides sp. WH2 strain: WH2 for biotransformation. The drug concentrations were measured before and after a 12-h incubation by liquid-chromatography-coupled mass spectrometry (LC–MS); details: bacteroides sp. wh2, 12 h, 2 µM
[8] = The drug is tested on Anaerotruncus colihominis strain: DSM17241 for biotransformation. The drug concentrations were measured before and after a 12-h incubation by liquid-chromatography-coupled mass spectrometry (LC–MS); details: 2 µM
[9] = The drug is tested on Dorea formicigenerans strain: ATCC27755 for biotransformation. The drug concentrations were measured before and after a 12-h incubation by liquid-chromatography-coupled mass spectrometry (LC–MS); details: 2 µM
[10] = The drug is tested on Eubacterium ventriosum strain: ATCC27560 for biotransformation. The drug concentrations were measured before and after a 12-h incubation by liquid-chromatography-coupled mass spectrometry (LC–MS); assay type: ADME; set-up: dose 2 uM, timepoint 0 vs 12 hours; details: 2 µM
[11] = The drug is tested on Ruminococcus lactaris strain: ATCC29176 for biotransformation. The drug concentrations were measured before and after a 12-h incubation by liquid-chromatography-coupled mass spectrometry (LC–MS); details: 2 µM
[12] = The drug is tested on Ruminococcus torques strain: ATCC27756 for biotransformation. The drug concentrations were measured before and after a 12-h incubation by liquid-chromatography-coupled mass spectrometry (LC–MS); assay type: ADME; set-up: dose 2 uM, timepoint 0 vs 12 hours; details: 2 µM
[13] = The drug is tested on Escherichia coli strain: BW25113 for biotransformation. The drug concentrations were measured before and after a 12-h incubation by liquid-chromatography-coupled mass spectrometry (LC–MS); details: 2 µM
[14] = bifidobacterium adolescentis, 12 h, 2 µM
Description: The drug is tested on Bifidobacterium adolescentis strain: ATCC 15703 for biotransformation. The drug concentrations were measured before and after a 12-h incubation by liquid-chromatography-coupled mass spectrometry (LC–MS)

[15] = bacteroides fragilis, 12 h, 2 µM
Description: The drug is tested on Bacteroides fragilis strain: 3397 (T10) for biotransformation. The drug concentrations were measured before and after a 12-h incubation by liquid-chromatography-coupled mass spectrometry (LC–MS)

[16] = bacteroides intestinalis, 12 h, 2 µM
Description: The drug is tested on Bacteroides intestinalis strain: DSM17393 for biotransformation. The drug concentrations were measured before and after a 12-h incubation by liquid-chromatography-coupled mass spectrometry (LC–MS)

[17] = bacteroides thetaiotaomicron, 12 h, 2 µM
Description: The drug is tested on Bacteroides thetaiotaomicron strain: 7330 for biotransformation. The drug concentrations were measured before and after a 12-h incubation by liquid-chromatography-coupled mass spectrometry (LC–MS)

[18] = parabacteroides distasonis, 12 h, 2 µM
Description: The drug is tested on Parabacteroides distasonis strain: ATCC8503 for biotransformation. The drug concentrations were measured before and after a 12-h incubation by liquid-chromatography-coupled mass spectrometry (LC–MS)

[19] = roseburia intestinalis, 12 h, 2 µM
Description: The drug is tested on Roseburia intestinalis strain: L1-82 for biotransformation. The drug concentrations were measured before and after a 12-h incubation by liquid-chromatography-coupled mass spectrometry (LC–MS)

[20] = akkermansia muciniphila, 12 h, 2 µM
Description: The drug is tested on Akkermansia muciniphila strain: ATCC BAA-835 for biotransformation. The drug concentrations were measured before and after a 12-h incubation by liquid-chromatography-coupled mass spectrometry (LC–MS)

Bacterial Biotransformation [1] | Bacterial Biotransformation [2] | Bacterial Biotransformation [3] | Bacterial Biotransformation [4] | Bacterial Biotransformation [5] | Bacterial Biotransformation [6] | Bacterial Biotransformation [7] | Bacterial Biotransformation [8] | Bacterial Biotransformation [9] | Bacterial Biotransformation [10] | Bacterial Biotransformation [11] | Bacterial Biotransformation [12] | Bacterial Biotransformation [13] | Bacterial Biotransformation [14] | Bacterial Biotransformation [15] | Bacterial Biotransformation [16] | Bacterial Biotransformation [17] | Bacterial Biotransformation [18] | Bacterial Biotransformation [19] | Bacterial Biotransformation [20] | Structure (SMILES)
Compound metabolized | Compound metabolized | Compound metabolized | Compound metabolized | Compound metabolized | Compound metabolized | Compound metabolized | Compound metabolized | Compound metabolized | Compound metabolized | Compound metabolized | Compound metabolized | Compound metabolized | Compound metabolized | Compound metabolized | Compound metabolized | Compound metabolized | Compound metabolized | Compound metabolized | Compound metabolized | COc1ccc2[nH]c([S+]([O-])Cc3ncc(C)c(OC)c3C)nc2c1 (stereo not given) [OMEPRAZOLE]
Compound metabolized | Compound metabolized | Compound metabolized | Compound metabolized | Compound metabolized | Compound metabolized | Compound metabolized | Compound metabolized | Compound metabolized | Compound metabolized | Compound metabolized | Compound metabolized | Compound metabolized | Compound metabolized | Compound metabolized | Compound metabolized | Compound metabolized | Compound metabolized | Compound metabolized | Compound metabolized | COc1ccnc(C[S+]([O-])c2nc3ccc(OC(F)F)cc3[nH]2)c1OC (stereo not given) [PANTOPRAZOLE]
Compound metabolized | Compound metabolized | Compound metabolized | Compound metabolized | Compound metabolized | Compound metabolized | Compound metabolized | Compound metabolized | Compound metabolized | Compound metabolized | Compound metabolized | Compound metabolized | Compound metabolized | Compound metabolized | Compound metabolized | Compound metabolized | Compound metabolized | Compound metabolized | Compound metabolized | Compound NOT metabolized | CC(=O)OCC(=O)NCCCOc1cccc(CN2CCCCC2)c1 [ROXATIDINE ACETATE]
Compound metabolized | Compound metabolized | Compound metabolized | Compound NOT metabolized | Compound metabolized | Compound metabolized | Compound metabolized | Compound metabolized | Compound metabolized | Compound metabolized | Compound metabolized | Compound metabolized | Compound metabolized | Compound metabolized | Compound metabolized | Compound metabolized | Compound metabolized | Compound metabolized | Compound metabolized | Compound metabolized | O=C(O)c1cc(/N=N/c2ccc(S(=O)(=O)Nc3ccccn3)cc2)ccc1O [SULFASALAZINE]
